These results are taken from patent publication US20260217735A1, “HETEROCYCLES AND USES THEREOF” (Kumquat Biosciences Inc., priority 2023, published 2026).

For one assay, the system named is MiaPaca2 cells. Nature of the assay: Ras cellular assay, growth of cells with K-Ras G12C mutation. As to conditions: Homo sapiens, MIA PaCa-2; cell proliferation assay; bins ≤500 nM / >500 nM; read-out: Inhibition of MiaPaca2 Cells (IC50). The assay is classed as cell-based. Summed up:
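Anchorage-independent growth: G12C-mutant MIA PaCa-2 plated in soft agar, time-zero plate read the next day when compound was dosed (final DMSO 0.3%). After growth to day 10, MTS-type absorbance at 490/660 nm relative to time zero gave IC50 via four-parameter fitting.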

The target in another assay is T1, KRAS WT (Homo sapiens, UniProt P01116).
T1 construct: made in house; host or cells: E. coli, e.g. BL21 (DE3)
T1 sequence (P01116 1-188 isoform P01116-2): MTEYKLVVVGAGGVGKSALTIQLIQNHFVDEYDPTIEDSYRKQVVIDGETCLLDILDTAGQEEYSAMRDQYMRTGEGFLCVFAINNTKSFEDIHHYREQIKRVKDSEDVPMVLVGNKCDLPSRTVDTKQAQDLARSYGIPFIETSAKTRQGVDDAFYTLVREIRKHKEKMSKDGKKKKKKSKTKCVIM
Nature of the assay: HTRF assay, wildtype KRAS interaction with SOS1. The assay is classed as biochemical. As to conditions: bins <500 nM / 500 nM to 1000 nM, read-out: Inhibition of KRAS WT (IC50). (In general: In TR-FRET formats the signal depends on donor and acceptor labels being close together.)

The target in the next assay is T2, KRAS G12V (Homo sapiens, UniProt P01116, G12V).
T2 construct: made in house; host or cells: E. coli, e.g. BL21 (DE3)
T2 sequence (P01116 1-188 isoform P01116-2 G12V): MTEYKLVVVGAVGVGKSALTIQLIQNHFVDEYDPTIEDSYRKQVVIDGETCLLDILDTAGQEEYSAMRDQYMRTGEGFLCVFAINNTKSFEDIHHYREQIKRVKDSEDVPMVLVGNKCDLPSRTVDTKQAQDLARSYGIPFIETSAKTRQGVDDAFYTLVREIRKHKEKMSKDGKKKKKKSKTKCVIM
Description: HTRF assay, KRAS G12V interaction with SOS1. As to conditions: bins <500 nM / 500 nM to 1000 nM, read-out: Inhibition of KRAS G12V (IC50). It counts as biochemical.

Another assay concerns the target T3, KRAS G12S (Homo sapiens, UniProt P01116, G12S).
T3 construct: made in house; host or cells: E. coli, e.g. BL21 (DE3)
Nature of the assay: HTRF assay, KRAS G12S interaction with SOS1. The assay is classed as biochemical. The settings on record: bins <500 nM / 500 nM to 1000 nM, read-out: Inhibition of KRAS G12S (IC50).

A further assay concerns the target T4, KRAS G12D (Homo sapiens, UniProt P01116, G12D).
T4 construct: made in house; host or cells: E. coli, e.g. BL21 (DE3)
Description: HTRF assay, KRAS G12D interaction with SOS1. As to conditions: bins <500 nM / 500 nM to 1000 nM, read-out: Inhibition of KRAS G12D (IC50). It counts as biochemical.

Each structure is given as a SMILES string.

T4 sequence (P01116 1-188 isoform P01116-2 G12D): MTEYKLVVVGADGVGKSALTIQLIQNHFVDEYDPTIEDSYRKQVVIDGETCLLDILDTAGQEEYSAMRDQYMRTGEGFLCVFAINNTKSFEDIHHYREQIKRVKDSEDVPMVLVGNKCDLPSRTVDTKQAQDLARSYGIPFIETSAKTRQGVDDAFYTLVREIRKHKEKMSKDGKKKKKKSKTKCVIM
T3 sequence (P01116 1-188 isoform P01116-2 G12S): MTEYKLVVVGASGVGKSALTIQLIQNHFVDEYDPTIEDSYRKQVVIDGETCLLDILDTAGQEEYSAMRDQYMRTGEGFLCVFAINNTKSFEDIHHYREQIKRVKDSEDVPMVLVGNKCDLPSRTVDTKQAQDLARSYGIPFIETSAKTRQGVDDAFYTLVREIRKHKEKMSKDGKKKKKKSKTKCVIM

In the case of `C[C@@H]1[C@H](N(C)c2nc(OC[C@@]34CCCN3C[C@H](F)C4)nc3c(F)c(-c4ccc(F)c5sc(N)c(C#N)c45)c(Cl)cc23)CCN1C(=O)n1ccnc1Cl` [Compound 178, 2-amino-4-(6-chloro-4-(((2R,3R)-1-(2-chloro-1H-imidazole-1-carbonyl)-2-methylpyrrolidin-3-yl)(methyl)amino)-8-fluoro-2-(((2R,7aS)-2-fluorotetrahydro-1H-pyrrolizin-7a(5H)-yl)methoxy)quinazolin-7-yl)-7-fluorobenzo[b]thiophene-3-carbonitrile], the concentration for half-maximal inhibition (IC50) (usually the concentration needed to halve the response being measured) in the assay with MiaPaca2 cells was at most 500 nM; on KRAS WT it was under 500 nM; on KRAS G12V it was under 500 nM; on KRAS G12S it was under 500 nM; on KRAS G12D, under 500 nM.

As to `CN(c1nc(OC[C@@]23CCCN2C[C@H](F)C3)nc2c(F)c(-c3ccc(F)c4sc(N)c(C#N)c34)c(Cl)cc12)[C@H]1CCN(C(=O)n2cncn2)C1` [Compound 179, 4-(4-(((S)-1-(1H-1,2,4-triazole-1-carbonyl)pyrrolidin-3-yl)(methyl)amino)-6-chloro-8-fluoro-2-(((2R,7aS)-2-fluorotetrahydro-1H-pyrrolizin-7a(5H)-yl)methoxy)quinazolin-7-yl)-2-amino-7-fluorobenzo[b]thiophene-3-carbonitrile], the concentration for half-maximal inhibition (IC50) with MiaPaca2 cells was at most 500 nM; on KRAS WT, under 500 nM; on KRAS G12V it was under 500 nM; on KRAS G12S, under 500 nM; on KRAS G12D, under 500 nM.

As to `Cc1ncn(C(=O)N2CC[C@@H](N(C)c3nc(OC[C@@]45CCCN4C[C@H](F)C5)nc4c(F)c(-c5ccc(F)c6sc(N)c(C#N)c56)c(Cl)cc34)[C@H]2C)c1C` [Compound 180, 2-amino-4-(6-chloro-4-(((2R,3R)-1-(4,5-dimethyl-1H-imidazole-1-carbonyl)-2-methylpyrrolidin-3-yl)(methyl)amino)-8-fluoro-2-(((2R,7aS)-2-fluorotetrahydro-1H-pyrrolizin-7a(5H)-yl)methoxy)quinazolin-7-yl)-7-fluorobenzo[b]thiophene-3-carbonitrile], the concentration for half-maximal inhibition (IC50) is at most 500 nM in the assay with MiaPaca2 cells; under 500 nM on KRAS WT; under 500 nM at KRAS G12V; under 500 nM on KRAS G12S; under 500 nM at KRAS G12D.

Regarding `CN(c1nc(OC[C@@]23CCCN2C[C@H](F)C3)nc2c(F)c(-c3ccc(F)c4sc(N)c(C#N)c34)c(Cl)cc12)[C@@H]1CCN(C(=O)n2cncn2)C1` [Compound 181, 4-(4-(((R)-1-(1H-1,2,4-triazole-1-carbonyl)pyrrolidin-3-yl)(methyl)amino)-6-chloro-8-fluoro-2-(((2R,7aS)-2-fluorotetrahydro-1H-pyrrolizin-7a(5H)-yl)methoxy)quinazolin-7-yl)-2-amino-7-fluorobenzo[b]thiophene-3-carbonitrile], the IC50 was at most 500 nM in the assay with MiaPaca2 cells; under 500 nM on KRAS WT; under 500 nM at KRAS G12V; under 500 nM at KRAS G12S; under 500 nM on KRAS G12D.

Regarding `CCN(c1nc(OC[C@@]23CCCN2[C@H](COc2ccc(C(F)(F)F)nn2)CC3)nc2c(F)c(-c3ccc(F)c4sc(N)c(C#N)c34)c(Cl)cc12)[C@@H]1CCN(C(=O)n2cc(C)nc2C)[C@@H]1C` [Compound 182, 2-amino-4-(6-chloro-4-(((2R,3R)-1-(2,4-dimethyl-1H-imidazole-1-carbonyl)-2-methylpyrrolidin-3-yl)(ethyl)amino)-8-fluoro-2-(((3S,7aS)-3-(((6-(trifluoromethyl)pyridazin-3-yl)oxy)methyl)tetrahydro-1H-pyrrolizin-7a(5H)-yl)methoxy)quinazolin-7-yl)-7-fluorobenzo[b]thiophene-3-carbonitrile], the IC50 in the assay with MiaPaca2 cells was at most 500 nM; at KRAS WT it was under 500 nM; at KRAS G12V, under 500 nM; at KRAS G12S, under 500 nM; at KRAS G12D, under 500 nM.

For the molecule `C[C@@H]1[C@H](N(C)c2nc(OC[C@@]34CCCN3C[C@H](F)C4)nc3c(F)c(-c4ccc(F)c5sc(N)c(C#N)c45)c(Cl)cc23)CCN1C(=O)n1cnc(CC#N)c1` [Compound 183, 2-amino-4-(6-chloro-4-(((2R,3R)-1-(4-(cyanomethyl)-1H-imidazole-1-carbonyl)-2-methylpyrrolidin-3-yl)(methyl)amino)-8-fluoro-2-(((2R,7aS)-2-fluorotetrahydro-1H-pyrrolizin-7a(5H)-yl)methoxy)quinazolin-7-yl)-7-fluorobenzo[b]thiophene-3-carbonitrile], the IC50 was at most 500 nM with MiaPaca2 cells; under 500 nM at KRAS WT; under 500 nM on KRAS G12V; under 500 nM on KRAS G12S; under 500 nM on KRAS G12D.

On to `CCN(c1nc(OC[C@@]23CCCN2C[C@H](F)C3)nc2c(F)c(-c3ccc(F)c4sc(N)c(C#N)c34)c(I)cc12)[C@@H]1CCN(C(=O)n2cc(C)nc2C)[C@@H]1C` [Compound 184, 2-amino-4-(4-(((2R,3R)-1-(2,4-dimethyl-1H-imidazole-1-carbonyl)-2-methylpyrrolidin-3-yl)(ethyl)amino)-8-fluoro-2-(((2R,7aS)-2-fluorotetrahydro-1H-pyrrolizin-7a(5H)-yl)methoxy)-6-iodoquinazolin-7-yl)-7-fluorobenzo[b]thiophene-3-carbonitrile], for which the half-maximal inhibitory concentration (IC50) is at most 500 nM with MiaPaca2 cells; under 500 nM at KRAS WT; under 500 nM at KRAS G12V; under 500 nM at KRAS G12S; under 500 nM on KRAS G12D.

With `Cc1c(F)c(N)cc(-c2ncc3c(N(C)[C@@H]4CCN(C(=O)n5cnc(F)n5)[C@@H]4C)nc(OC[C@@]45CCCN4C[C@H](F)C5)nc3c2F)c1C(F)(F)F` [Compound 185, ((2R,3R)-3-((7-(5-amino-4-fluoro-3-methyl-2-(trifluoromethyl)phenyl)-8-fluoro-2-(((2R,7aS)-2-fluorotetrahydro-1H-pyrrolizin-7a(5H)-yl)methoxy)pyrido[4,3-d]pyrimidin-4-yl)(methyl)amino)-2-methylpyrrolidin-1-yl)(3-fluoro-1H-1,2,4-triazol-1-yl)methanone], the IC50 with MiaPaca2 cells is at most 500 nM; on KRAS WT it was under 500 nM; at KRAS G12V it was under 500 nM; on KRAS G12S it was under 500 nM; at KRAS G12D it was under 500 nM.

For `CCN(c1nc(OC[C@@]23CCCN2C[C@H](F)C3)nc2c(F)c(-c3ccc(F)c4sc(N)c(C#N)c34)c(Cl)cc12)[C@@H]1CCN(C(=O)n2ccnc2Cl)[C@@H]1C` [Compound 186, 2-amino-4-(6-chloro-4-(((2R,3R)-1-(2-chloro-1H-imidazole-1-carbonyl)-2-methylpyrrolidin-3-yl)(ethyl)amino)-8-fluoro-2-(((2R,7aS)-2-fluorotetrahydro-1H-pyrrolizin-7a(5H)-yl)methoxy)quinazolin-7-yl)-7-fluorobenzo[b]thiophene-3-carbonitrile], the 50% inhibitory concentration (IC50) in the assay with MiaPaca2 cells is at most 500 nM; at KRAS WT, under 500 nM; on KRAS G12V, under 500 nM; at KRAS G12S it was under 500 nM; on KRAS G12D, under 500 nM.

Regarding `CC1C(N(C)c2nc(OC[C@@]34CCCN3C[C@H](F)C4)nc3c(F)c(-c4ccc(F)c5sc(N)c(C#N)c45)c(Cl)cc23)CCCN1C(=O)n1ccnc1` (stereo partly drawn) [Compound 187, 4-(4-((1-(1H-imidazole-1-carbonyl)-2-methylpiperidin-3-yl)(methyl)amino)-6-chloro-8-fluoro-2-(((2R,7aS)-2-fluorotetrahydro-1H-pyrrolizin-7a(5H)-yl)methoxy)quinazolin-7-yl)-2-amino-7-fluorobenzo[b]thiophene-3-carbonitrile], the IC50 was at most 500 nM with MiaPaca2 cells; under 500 nM on KRAS WT; under 500 nM on KRAS G12V; under 500 nM on KRAS G12S; under 500 nM on KRAS G12D.

Turning to `CCN(c1nc(OC[C@@]23CCCN2C[C@H](F)C3)nc2c(F)c(-c3ccc(F)c4sc(N)c(C#N)c34)c(Cl)cc12)[C@@H]1CCN(C(=O)n2ccnc2C#N)[C@@H]1C` [Compound 188, 1-((2R,3R)-3-((7-(2-amino-3-cyano-7-fluorobenzo[b]thiophen-4-yl)-6-chloro-8-fluoro-2-(((2R,7aS)-2-fluorotetrahydro-1H-pyrrolizin-7a(5H)-yl)methoxy)quinazolin-4-yl)(ethyl)amino)-2-methylpyrrolidine-1-carbonyl)-1H-imidazole-2-carbonitrile], the IC50 with MiaPaca2 cells was at most 500 nM; at KRAS WT, under 500 nM; on KRAS G12V, under 500 nM; at KRAS G12S, under 500 nM; at KRAS G12D, under 500 nM.

For `Cc1nc(C#N)cn1C(=O)N1CC2CCN(c3nc(OC[C@@]45CCCN4C[C@H](F)C5)nc4c(F)c(-c5ccc(F)c6sc(N)c(C#N)c56)c(Cl)cc34)C2C1` (stereo partly drawn) [Compound 192, 1-(1-(7-(2-amino-3-cyano-7-fluorobenzo[b]thiophen-4-yl)-6-chloro-8-fluoro-2-(((2R,7aS)-2-fluorotetrahydro-1H-pyrrolizin-7a(5H)-yl)methoxy)quinazolin-4-yl)octahydropyrrolo[3,4-b]pyrrole-5-carbonyl)-2-methyl-1H-imidazole-4-carbonitrile], the IC50 is at most 500 nM in the assay on MiaPaca2 cells; under 500 nM on KRAS WT; under 500 nM on KRAS G12V; under 500 nM at KRAS G12S; under 500 nM at KRAS G12D.
